Test results from patent US4443459A, “α-Tocopheryl ester of 5-substituted picolinic acid and hypotensive composition containing it” (Banyu Pharmaceutical Co., Ltd., priority 1981, dated 1984).
Like-named read-outs stand apart in the source and are kept apart here.

Experiments:
[1] = test system: Spontaneous hypertensive rats; assay: Maximum blood pressure lowering rate, oral (Table 4); type: in vivo; settings: Rattus norvegicus, 0.01 mmol/kg oral
Description: (§1) The following Tables 4 and 5 summarize the maximum blood pressure lowering rates and the acute toxicity values (LD50 values) of other typical examples of the compound of formula (I).
In Table 4, 0.01 mmol/kg of each compound was orally administered to spontareous hypertensive rats.

[2] = Acute toxicity LD50, intraperitoneal (Table 5); settings: mouse, in vivo, ip
Description: as §1
In Table 5, each compound was intraperitoneally administered to mice.

dopamine β-hydroxylase = molecular target: T1, dopamine β-hydroxylase (Bos taurus, UniProt P15101); assay: 50% dopamine β-hydroxylase inhibitory concentration; type: biochemical
T1 sequence (P15101 1-610): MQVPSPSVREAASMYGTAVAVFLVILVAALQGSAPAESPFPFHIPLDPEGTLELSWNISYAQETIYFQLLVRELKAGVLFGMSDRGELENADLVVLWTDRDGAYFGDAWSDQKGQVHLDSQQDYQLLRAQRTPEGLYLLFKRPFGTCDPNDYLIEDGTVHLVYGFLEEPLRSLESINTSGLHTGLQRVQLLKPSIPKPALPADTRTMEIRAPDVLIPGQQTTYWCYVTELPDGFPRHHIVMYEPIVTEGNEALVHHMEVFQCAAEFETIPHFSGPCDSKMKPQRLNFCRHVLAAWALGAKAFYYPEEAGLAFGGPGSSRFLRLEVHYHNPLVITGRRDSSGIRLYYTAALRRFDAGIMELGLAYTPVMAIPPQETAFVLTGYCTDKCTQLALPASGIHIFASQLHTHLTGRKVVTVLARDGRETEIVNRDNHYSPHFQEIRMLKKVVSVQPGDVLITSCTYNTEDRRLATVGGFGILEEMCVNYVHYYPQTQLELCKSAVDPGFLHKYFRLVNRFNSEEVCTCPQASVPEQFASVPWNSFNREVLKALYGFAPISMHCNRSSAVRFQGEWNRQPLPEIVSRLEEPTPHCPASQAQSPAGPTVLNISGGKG

[3] = corresponding acid, read-out: Maximum blood pressure lowering rate (%) of the 5-substituted picolinic acid
[4] = read-out: LD50 of the 5-substituted picolinic acid
[5] = ester of formula (I), read-out: Maximum blood pressure lowering rate (%) of the compound of the invention
[6] = read-out: LD50 of the compound of the invention
[7] = intraperitoneal, mice, corresponding acid, read-out: LD50 of the 5-substituted picolinic acid

Row | SMILES | inhibition in vivo at 10 µmol/kg [1, 3] | LD50 [2, 4] | inhibition in vivo at 10 µmol/kg [1, 5] | LD50 [2, 6] | other results
1 | O=C(O)c1ccc(SCCCCl)cn1 [3-Chloropropyl] | 48% | 179 mg/kg |  |  | IC50 (dopamine β-hydroxylase; Table 6): 0.55 µM
2 | O=C(O)c1ccc(Oc2ccc(Cl)cc2)cn1 [reference compound] | 56% | 123 mg/kg |  |  | 
3 | Cc1c(C)c2c(c(C)c1OC(=O)c1ccc(Oc3ccc(Cl)cc3)cn1)CCC(C)(CCCC(C)CCCC(C)CCCC(C)C)O2 (racemic) [Example 17, dl-α-tocopheryl 5-(4-chlorophenyloxy)picolinate] |  |  | 48% | > 4000 mg/kg | 
4 | O=C(O)c1ccc(Cc2ccccc2)cn1 [reference compound] | 39% | 135 mg/kg |  |  | 
5 | Cc1c(C)c2c(c(C)c1OC(=O)c1ccc(CCC(Br)CBr)cn1)CCC(C)(CCCC(C)CCCC(C)CCCC(C)C)O2 (racemic) [Example 4, dl-α-tocopheryl 5-(3,4-dibromobutyl)picolinate] |  |  | 53% | > 4000 mg/kg | 
6 | CCCCOc1ccc(C(=O)Oc2c(C)c(C)c3c(c2C)CCC(C)(CCCC(C)CCCC(C)CCCC(C)C)O3)nc1 (racemic) [Example 14, dl-α-tocopheryl 5-butyloxypicolinate] |  |  | 36% | > 4000 mg/kg | 
7 | Cc1c(C)c2c(c(C)c1OC(=O)c1ccc(CCC(Cl)CCl)cn1)CCC(C)(CCCC(C)CCCC(C)CCCC(C)C)O2 (racemic) [Example 5, dl-α-tocopheryl 5-(3,4-dichlorobutyl)picolinate] |  |  | 53% | > 4000 mg/kg | 
8 | Cc1c(C)c2c(c(C)c1OC(=O)c1ccc(OCCCCCl)cn1)CCC(C)(CCCC(C)CCCC(C)CCCC(C)C)O2 (racemic) [Example 16, dl-α-tocopheryl 5-(4-chlorobutyloxy)picolinate] |  |  | 40% | > 4000 mg/kg | 
9 | CSc1ccc(C(=O)O)nc1 [Methyl] |  |  |  |  | IC50 (dopamine β-hydroxylase; Table 6): 7.5 µM
10 | CCCCSc1ccc(C(=O)Oc2c(C)c(C)c3c(c2C)CCC(C)(CCCC(C)CCCC(C)CCCC(C)C)O3)nc1 (racemic) [Example 18, dl-α-tocopheryl 5-butylthiopicolinate] |  |  | 39% | > 4000 mg/kg | 
11 | C=CCSc1ccc(C(=O)O)nc1 [Allyl] |  |  |  |  | IC50 (dopamine β-hydroxylase; Table 6): 0.55 µM
12 | Cc1c(C)c2c(c(C)c1OC(=O)c1ccc(Cc3ccccc3)cn1)CCC(C)(CCCC(C)CCCC(C)CCCC(C)C)O2 (racemic) [Example 9, dl-α-tocopheryl 5-benzylpicolinate] |  |  | 41% | > 4000 mg/kg | 
13 | CCCSc1ccc(C(=O)Oc2c(C)c(C)c3c(c2C)CCC(C)(CCCC(C)CCCC(C)CCCC(C)C)O3)nc1 (racemic) [Example 25, dl-α-tocopheryl 5-propylthiopicolate] |  |  | 31% | > 4000 mg/kg | 
14 | O=C(O)c1ccc(SCc2ccccc2)cn1 [Benzyl] |  |  |  |  | IC50 (dopamine β-hydroxylase; Table 6): 0.28 µM
15 | Cc1c(C)c2c(c(C)c1OC(=O)c1ccc(CCCCCl)cn1)CCC(C)(CCCC(C)CCCC(C)CCCC(C)C)O2 (racemic) [Example 7, dl-α-tocopheryl 5-(4-chlorobutyl)picolinate] |  |  | 50% | > 4000 mg/kg | 
16 | CCCCCCCCSc1ccc(C(=O)O)nc1 [n-Octyl] |  |  |  |  | IC50 (dopamine β-hydroxylase; Table 6): 23 µM
17 | CCCCSc1ccc(C(=O)O)nc1 [Referential Example 1, 5-n-butylthiopicolinic acid] | 36% |  |  |  | LD50 [2, 7]: 143 mg/kg; IC50 (dopamine β-hydroxylase; Referential Example 1): 0.51 µM
18 | O=C(O)c1ccc(CCCCCl)cn1 [reference compound] | 46% | 44 mg/kg |  |  | 
19 | O=C(O)c1ccc(CCC(Br)CBr)cn1 (stereo not shown) [5-(3,4-dibromobutyl)picolinic acid, reference compound] | 50% |  |  |  | LD50 [2, 7]: 110 mg/kg
20 | CC(C)CCSc1ccc(C(=O)O)nc1 [i-Pentyl] |  |  |  |  | IC50 (dopamine β-hydroxylase; Table 6): 0.21 µM
21 | O=C(O)c1ccc(CCCCBr)cn1 [reference compound] | 49% | 46 mg/kg |  |  | 
22 | Cc1c(C)c2c(c(C)c1OC(=O)c1ccc(CCCCBr)cn1)CCC(C)(CCCC(C)CCCC(C)CCCC(C)C)O2 (racemic) [Example 6, dl-α-tocopheryl 5-(4-bromobutyl)picolinate] |  |  | 48% | > 4000 mg/kg | 
23 | CCCCOc1ccc(C(=O)O)nc1 [reference compound] | 31% | 134 mg/kg |  |  | 
24 | Cc1c(C)c2c(c(C)c1OC(=O)c1ccc(SCCCCl)cn1)CCC(C)(CCCC(C)CCCC(C)CCCC(C)C)O2 (racemic) [Example 23, dl-α-tocopheryl 5-(3-chloropropylthio)picolinate] |  |  | 43% | > 4000 mg/kg | 
25 | CCCSc1ccc(C(=O)O)nc1 [n-Propyl, propylthiopicolinic acid] | 33% | 167 mg/kg |  |  | IC50 (dopamine β-hydroxylase; Table 6): 0.7 µM
26 | O=C(O)c1ccc(OCCCCCl)cn1 [reference compound] | 43% | 172 mg/kg |  |  | 
27 | O=C(O)c1ccc(CCC(Cl)CCl)cn1 (stereo not shown) [reference compound] | 53% | 41 mg/kg |  |  | 
